Laboratory results published in paper PMC6842947, “Enhanced Antiviral Activity of Human Surfactant Protein D by Site-Specific Engineering of the Carbohydrate Recognition Domain” (Frontiers in Immunology, 2019).

Legend:
Test in all cases: Saccharide competition of SP-D binding to BSA-mannan coated plates
pSP-D = target: T1, pSP-D (Sus scrofa, UniProt Q9N1X4); design: species or system porcine
T1 sequence (Q9N1X4 21-378): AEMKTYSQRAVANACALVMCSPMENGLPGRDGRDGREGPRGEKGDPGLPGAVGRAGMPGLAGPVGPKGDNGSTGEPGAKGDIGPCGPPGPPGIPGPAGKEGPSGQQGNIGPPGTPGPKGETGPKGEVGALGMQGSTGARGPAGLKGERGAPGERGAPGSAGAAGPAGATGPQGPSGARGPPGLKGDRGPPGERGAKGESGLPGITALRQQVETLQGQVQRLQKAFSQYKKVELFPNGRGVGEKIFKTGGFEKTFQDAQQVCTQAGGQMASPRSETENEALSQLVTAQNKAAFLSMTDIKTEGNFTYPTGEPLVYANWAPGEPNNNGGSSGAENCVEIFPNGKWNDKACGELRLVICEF

hSP-D = target: T2, hSP-D (Homo sapiens, UniProt P35247)
T2 construct: The full-length recombinant collectins pSP-D and hSP-D were constructed as published; made in house; host or cells: HEK293 (HEK293E, transient transfection)
T2 sequence (P35247 21-375): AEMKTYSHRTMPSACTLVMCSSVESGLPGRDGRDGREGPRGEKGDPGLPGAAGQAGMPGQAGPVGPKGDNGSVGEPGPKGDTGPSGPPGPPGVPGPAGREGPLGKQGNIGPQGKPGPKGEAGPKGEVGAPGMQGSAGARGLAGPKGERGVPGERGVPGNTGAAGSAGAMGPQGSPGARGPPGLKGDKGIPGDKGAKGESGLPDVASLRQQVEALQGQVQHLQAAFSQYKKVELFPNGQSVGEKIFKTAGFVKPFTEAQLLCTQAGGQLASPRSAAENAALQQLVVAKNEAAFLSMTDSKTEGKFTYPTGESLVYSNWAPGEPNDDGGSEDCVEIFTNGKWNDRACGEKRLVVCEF

iSP-D = target: T3, iSP-D (Homo sapiens, UniProt P35247, D344N/D350N/E309K/INS346GSS/K307Q/V271E)
T3 construct: Full-length recombinant iSP-D was generated based upon the full-length hSP-D cDNA clone; made in house; host or cells: HEK293 (HEK293E, transient transfection)
T3 sequence (P35247 with tags, fused parts or gaps V271E/K307Q/E309K/D344N/INS346GSS/D350N): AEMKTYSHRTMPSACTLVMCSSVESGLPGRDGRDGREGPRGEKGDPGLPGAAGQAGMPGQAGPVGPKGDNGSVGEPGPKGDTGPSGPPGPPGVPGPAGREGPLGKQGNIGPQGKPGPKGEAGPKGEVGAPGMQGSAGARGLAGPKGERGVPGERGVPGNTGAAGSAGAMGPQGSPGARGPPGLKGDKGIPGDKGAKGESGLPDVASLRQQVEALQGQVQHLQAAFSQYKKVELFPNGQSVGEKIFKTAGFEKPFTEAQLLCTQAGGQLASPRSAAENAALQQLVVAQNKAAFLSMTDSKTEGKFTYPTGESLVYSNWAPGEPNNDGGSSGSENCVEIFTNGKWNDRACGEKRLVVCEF

## O=C[C@H](O)[C@@H](O)[C@@H](O)[C@H](O)CO [D-Galactose, D-galactose]
pSP-D
  IC50: 6.5 mM
hSP-D
  IC50: 13.5 mM
iSP-D
  IC50: 13.6 mM

## OC[C@H]1OC(O)[C@H](O)[C@@H](O)[C@@H]1O (stereo partly drawn) [D-Glucose, D-glucose]
pSP-D
  IC50: 2.8 mM
hSP-D
  IC50: 4.6 mM
iSP-D
  IC50: 7.8 mM

## O=C(CO)[C@@H](O)[C@H](O)[C@H](O)CO [Fructose, fructose]
pSP-D
  IC50: 2.8 mM
hSP-D
  IC50: 3.1 mM
iSP-D
  IC50: 4.8 mM

## CC(=O)N[C@@H]1C(O)O[C@H](CO)[C@@H](O)[C@@H]1O (stereo partly shown) [ManNAc, N-acetylmannosamine]
pSP-D
  IC50: 8 mM
hSP-D
  IC50: 2.2 mM
iSP-D
  IC50: 3.1 mM

## O[C@H]1[C@H](O)[C@@H](O)[C@H](O)[C@@H](O)[C@H]1O [Myo-Inositol, myo-inositol]
iSP-D; ratio of IC50 for inhibition of binding to BSA-mannan
  IC50-value with iSP-D as compared to hSP-D: three times higher
